Laboratory results published in patent US20260034123A1 (Cedilla Therapeutics, Inc., priority 2022, published 2026).

Tests used:
[1] = system: Kuramochi cells RB-WT; assay: IncuCyte Kuramochi cell proliferation assay, RB-WT; assay type: cell-based; details: 72 hours, cell count
In short: (§1)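 mApple-H2B-labelled Kuramochi cells were treated with a 10-point, half-log series (top 20 µM) and imaged at 0 and 72 h. Fluorescent nuclei were counted, and the 0–72 h fold change was normalized to DMSO wells. GI50 came from dose-response fits.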

[2] = molecular target: T1, CDK2/Cyclin E1 (Homo sapiens, UniProt P24941); assay: Caliper LabChip EZ Reader mobility shift assay; assay type: biochemical; details: 2.5 nM CDK2/Cyclin E1(14-475), 100 μM ATP, 30 min preincubation; read-out: Caliper Assay (CDK2/CCNE1): IC50
Procedure: Inhibition of CDK2/Cyclin E1 activity in the presence of compounds of the present disclosure was evaluated using a Caliper LabChip® EZ Reader mobility shift assay. In the assay, activated CDK2/Cyclin E1 catalyzes the phosphorylation of a fluorescently tagged peptide 5-FAM-QSPKKG-CONH2 (PerkinElmer, FL Peptide 18) which induces a difference in capillary electrophoresis mobility. The peptide substrate and product were measured, and the conversion ratio was used to determine the inhibition (as % activity and IC50 values) of CDK2/Cyclin E1. Reactions contained 50 mM HEPES pH 7.5, 10 mM MgCl2, 1 mM EDTA, 2 mM DTT, 0.01% Brij35, 0.5 mg/mL BSA, 0.1% DMSO, 2.5 nM CDK2/Cyclin E1(14-475), 100 μM ATP, and 1.5 μM fluorescent peptide substrate.
Dose titrations of inhibitors in 100% DMSO were combined with 3.25 nM CDK2/Cyclin E1(14-475) and 130 μM of ATP in reaction buffer. The mixtures were incubated for 30 minutes before the addition of fluorescent peptide substrate to initiate the kinase reaction. The final conditions were 2.5 nM CDK2/Cyclin E1(14-475), 100 μM ATP, and 1.5 μM fluorescent peptide. The reactions were stopped after 100 minutes with the addition of EDTA (6 mM final EDTA concentration). The stopped reactions were analyzed on a Caliper LabChip® EZ Reader 11. The conversion ratios were normalized to yield % activity, plotted against compound concentration, and fit to a four-parameter equation to determine the IC50 for each compound.

[3] = system: Kuramochi cells RB-KO; assay: IncuCyte Kuramochi cell proliferation assay, RB-KO; assay type: cell-based; details: 72 hours, cell count, batch mean
In short: as §1

[4] = molecular target: T1, CDK2/Cyclin E1; assay: ADP-Glo Luminescent Kinase Assay (CDK2/E1-37C); assay type: biochemical; details: 0.18 nM CDK2/Cyclin E1, 100 μM ATP, Histone H1, 37° C.; read-out: ADPGLO (CDK2/E1-37C): IC50
In short: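 Activated CDK2/Cyclin E1 (0.18 nM final) preincubated with compound 60 min at 37 °C, then reacted with 100 μM ATP and Histone H1 ([…]) for 90 min at 37 °C in HEPES pH 7.5 buffer. ADP-Glo luminescence normalized to % activity; IC50 from four-parameter fit.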

| Structure (SMILES) | IC50 [2] [µM] | IC50 [4] [nM] | IC50 [1] [µM] | IC50 [3] [µM] |
| --- | --- | --- | --- | --- |
| CC1(C)C[C@@H]1C(=O)N1CC2(CN(C(=O)c3cncs3)C[C@H]2COCc2cccc(C(F)(F)F)c2)C1 [Compound I-44, ((S)-2-((S)-2,2-dimethylcyclopropanecarbonyl)-8-(((3-(trifluoromethyl)benzyl)oxy)methyl)-2,6-diazaspiro[3.4]octan-6-yl)(thiazol-5-yl)methanone] | 1 to 10 | – | > 10 | – |
| CC1(C)C[C@@H]1C(=O)N1CC2(C1)CN(c1ncnc3ncsc13)CC2COCc1cccc(C2CCOCC2)n1 (stereo partly drawn) [Compound I-47, ((S)-2,2-dimethylcyclopropyl)(8-(((6-(tetrahydro-2H-pyran-4-yl)pyridin-2-yl)methoxy)methyl)-6-(thiazolo[4,5-d]pyrimidin-7-yl)-2,6-diazaspiro[3.4]octan-2-yl)methanone] | > 10 | – | > 10 | – |
| CC1(C)C[C@@H]1C(=O)N1CC2(CN(C(=O)c3cncs3)C[C@H]2COc2cncc3c(C4CCOCC4)cccc23)C1 [Compound I-23, ((S)-2-((S)-2,2-dimethylcyclopropanecarbonyl)-8-(((8-(tetrahydro-2H-pyran-4-yl)isoquinolin-4-yl)oxy)methyl)-2,6-diazaspiro[3.4]octan-6-yl)(thiazol-5-yl)methanone] | 1 to 10 | – | > 10 | – |
| CC(OCc1cccc(C2CCOCC2)n1)[C@@H]1CN(C(=O)c2cncs2)CC12CN(C(=O)[C@H]1CC1(C)C)C2 (stereo partly drawn) [Compound I-35, ((S)-2-((S)-2,2-dimethylcyclopropane-1-carbonyl)-8-(1-((6-(tetrahydro-2H-pyran-4-yl)pyridin-2-yl)methoxy)ethyl)-2,6-diazaspiro [3.4]octan-6-yl) (thiazol-5-yl) methanone] | > 10 | – | > 10 | – |
| CC1(C)C[C@@H]1C(=O)N1CC2(CN(C(=O)c3cncs3)C[C@H]2COCc2ccn[nH]2)C1 [Compound I-29, ((S)-8-(((1H-pyrazol-5-yl)methoxy)methyl)-2-((S)-2,2-dimethylcyclopropanecarbonyl)-2,6-diazaspiro[3.4]octan-6-yl)(thiazol-5-yl)methanone] | > 10 | – | > 10 | – |
| CC1(C)C[C@@H]1C(=O)N1CC2(CN(C(=O)c3cncs3)C[C@H]2COCC2CCCCO2)C1 (stereo partly drawn) [Compound I-32, ((S)-2-((S)-2,2-dimethylcyclopropane-1-carbonyl)-8-(((tetrahydro-2H-pyran-2-yl)methoxy)methyl)-2,6-diazaspiro [3.4]octan-6-yl) (thiazol-5-yl) methanone] | > 10 | – | > 10 | – |
| CC1(C)C[C@@H]1C(=O)N1CC2(C1)CN(c1cccc3ncsc13)CC2COCc1cccc(C2CCOCC2)n1 (stereo partly shown) [Compound I-46] | > 10 | – | > 10 | – |
| CC1(C)C[C@@H]1C(=O)N1CC2(CN(CC3CCCO3)C[C@H]2CNC(=O)c2cccc(-c3ccc(C(F)(F)F)cc3)n2)C1 (stereo partly drawn) [Compound I-9, N-(((8R)-2-((S)-2,2-dimethylcyclopropane-1-carbonyl)-6-((tetrahydrofuran-2-yl)methyl)-2,6-diazaspiro[3.4]octan-8-yl)methyl)-6-(4-(trifluoromethyl)phenyl)picolinamide] | > 10 | – | > 10 | – |
| CC(OC[C@@H]1CN(C(=O)c2cncs2)CC12CN(C(=O)[C@H]1CC1(C)C)C2)c1cccc(C2CCOCC2)n1 (stereo partly drawn) [Compound I-14, ((S)-2-((S)-2,2-dimethylcyclopropane-1-carbonyl)-8-((1-(6-(tetrahydro-2H-pyran-4-yl)pyridin-2-yl)ethoxy)methyl)-2,6-diazaspiro[3.4]octan-6-yl)(thiazol-5-yl)methanone] | 1 to 10 | – | > 10 | – |
| COc1ccccc1-c1cccc(C(=O)NC[C@@H]2CN(CC3CCCO3)CC23CN(C(=O)[C@H]2CC2(C)C)C3)n1 (stereo partly drawn) [Compound I-10, N-(((8R)-2-((S)-2,2-dimethylcyclopropane-1-carbonyl)-6-((tetrahydrofuran-2-yl)methyl)-2,6-diazaspiro[3.4]octan-8-yl)methyl)-6-(2-methoxyphenyl)picolinamide] | 1 to 10 | – | > 10 | – |
| CC1(C)C[C@@H]1C(=O)N1CC2(CN(C(=O)c3cncs3)C[C@H]2COc2nccc3c(C4CCOCC4)cccc23)C1 [Compound I-25, ((S)-2-((S)-2,2-dimethylcyclopropanecarbonyl)-8-(((5-(tetrahydro-2H-pyran-4-yl)isoquinolin-1-yl)oxy)methyl)-2,6-diazaspiro[3.4]octan-6-yl)(thiazol-5-yl)methanone] | 0.1 to 1 | – | > 10 | – |

More lines, main results first:

| IC50 [2] [µM] | IC50 [4] [nM] | Structure (SMILES) | IC50 [1] [µM] | IC50 [3] [µM] |
| --- | --- | --- | --- | --- |
| > 10 | – | CC(C)(C)CN1CC2(C1)CN(C(=O)c1cncs1)C[C@H]2COCc1cccc(-c2ccc(C(F)(F)F)cc2)n1 [Compound I-16, (S)-(2-neopentyl-8-(((6-(4-(trifluoromethyl)phenyl)pyridin-2-yl)methoxy)methyl)-2,6-diazaspiro[3.4]octan-6-yl)(thiazol-5-yl)methanone] | 5 to 10 | – |
| > 10 | – | O=C(c1cncs1)N1C[C@@H](COCc2cccc(-c3ccc(C4(C(F)(F)F)CC4)cc3)n2)C2(CN(CC3CCCO3)C2)C1 (stereo partly drawn) [Compound I-7, ((8S)-2-((tetrahydrofuran-2-yl)methyl)-8-(((6-(4-(1-(trifluoromethyl)cyclopropyl)phenyl)pyridin-2-yl)methoxy)methyl)-2,6-diazaspiro[3.4]octan-6-yl)(thiazol-5-yl)methanone] | > 10 | – |
| 1 to 10 | – | CC1(C)C[C@@H]1C(=O)N1CC2(CN(C(=O)c3cncs3)C[C@H]2COCc2ccc(C(F)(F)F)cc2)C1 [Compound I-41, ((S)-2-((S)-2,2-dimethylcyclopropane-1-carbonyl)-8-(((4-(trifluoromethyl)benzyl)oxy)methyl)-2,6-diazaspiro[3.4]octan-6-yl)(thiazol-5-yl)methanone] | > 10 | – |
| 0.01 to 0.1 | – | CC1(C)C[C@@H]1C(=O)N1CC2(CN(C(=O)c3cncs3)C[C@H]2COCc2cccc(-c3ccc(C(F)(F)F)cc3F)n2)C1 [Compound I-33, ((S)-2-((S)-2,2-dimethylcyclopropane-1-carbonyl)-8-(((6-(2-fluoro-4-(trifluoromethyl)phenyl)pyridin-2-yl)methoxy)methyl)-2,6-diazaspiro[3.4]octan-6-yl)(thiazol-5-yl) methanone] | 5 to 10 | – |
| 0.1 to 1 | – | CC1(C)C[C@@H]1C(=O)N1CC2(CN(C(=O)c3cncs3)C[C@H]2COCc2cccc(-c3ccc(C(F)(F)F)nc3)n2)C1 [Compound I-21, ((S)-2-((S)-2,2-dimethylcyclopropane-1-carbonyl)-8-(((6′-(trifluoromethyl)-[2,3′-bipyridin]-6-yl)methoxy)methyl)-2,6-diazaspiro[3.4]octan-6-yl)(thiazol-5-yl)methanone] | > 10 | – |
| 0.01 to 0.1 | – | CC1(C)C[C@@H]1C(=O)N1CC2(CN(C(=O)c3cncs3)C[C@H]2COCc2cccc(C3CCC(OC(F)(F)F)CC3)n2)C1 (stereo partly drawn) [Compound I-24, ((S)-2-((S)-2,2-dimethylcyclopropane-1-carbonyl)-8-(((6-(4-(trifluoromethoxy)cyclohexyl)pyridin-2-yl)methoxy)methyl)-2,6-diazaspiro[3.4]octan-6-yl)(thiazol-5-yl) methanone] | 5 to 10 | – |
| – | ≤ 500 | CC1(C)C[C@@H]1C(=O)N1CC2(CN(C(=O)c3cnn(Cc4ccc(F)cc4)c3)CC2COCc2cccc(C3CCC(F)(F)CC3)c2-c2nn[nH]n2)C1 (stereo partly drawn) [I′-70, (8-(((3-(4,4-difluorocyclohexyl)-2-(2H-tetrazol-5-yl)benzyl)oxy)methyl)-2-((S)-2,2-dimethylcyclopropane-1-carbonyl)-2,6-diazaspiro[3.4]octan-6-yl)(1-(4-fluorobenzyl)-1H-pyrazol-4-yl)methanone] | > 10 | > 10 |
| – | ≤ 500 | CC(C)(C(=O)N1CC2(CN(C(=O)c3cnn(Cc4ccc(F)cc4)c3)C[C@H]2COCc2ccc(F)c(C3CCC(F)(F)CC3)c2C(=O)O)C1)C(F)(F)F [I′-21] | > 10 | > 10 |
| – | ≤ 500 | O=C(c1cnn(Cc2ccc(C(F)(F)F)cc2)c1)N1C[C@@H](COCc2cccc(C3CCC(C(F)(F)F)CC3)c2-c2nn[nH]n2)C2(C1)CN(C(=O)C1(C(F)(F)F)CC1)C2 (stereo partly shown) [Compound I-69] | > 10 | > 10 |
| – | > 10000 | CC1(C)C[C@@H]1C(=O)N1CC2(CN(C(=O)c3cnn(Cc4ccc(F)cc4)c3)CC2/C=C\Cc2cccc(C3CCC(F)(F)CC3)c2C(=O)O)C1 (stereo partly shown) [I′-69] | 5 to 10 | > 10 |
